# Patent US20140303082A1, “SELECTIVE GPCR LIGANDS” (Medical Research Council, priority 2011, published 2014)
# Changes are numbered by the printed parent chain. Where a SMILES comes first, the peptide text is derived from it. Where no end group is shown, it is not given here.
# What was measured:
# AT2R-F272H = molecular target: T1, AT2R-F272H (Homo sapiens, UniProt P50052, F272H); experiment: Radioligand binding assays, AT2R mutant; conditions: competition vs 2 nM [125I]-AII, 2 hours on ice, Cheng and Prusoff
# T1 construct: expressed in transfected cells; host or cells: HEK293T, transient, crude membranes
# T1 sequence (P50052 1-363 F272H): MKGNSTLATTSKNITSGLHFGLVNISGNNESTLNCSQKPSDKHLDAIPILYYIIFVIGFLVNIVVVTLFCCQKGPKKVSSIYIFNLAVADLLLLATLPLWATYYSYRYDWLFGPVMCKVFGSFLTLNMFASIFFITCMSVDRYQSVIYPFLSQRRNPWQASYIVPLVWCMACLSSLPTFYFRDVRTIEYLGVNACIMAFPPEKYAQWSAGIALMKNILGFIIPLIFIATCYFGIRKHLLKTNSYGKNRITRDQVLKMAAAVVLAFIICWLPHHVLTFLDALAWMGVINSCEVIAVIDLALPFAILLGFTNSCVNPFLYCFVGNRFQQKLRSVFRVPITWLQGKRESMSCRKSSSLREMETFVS
# Protocol: (§1) Mutagenesis. AT2R mutants were generated as described elsewhere^44.
# (§2) Cell culture and transient transfection. HEK293T cells were maintained at 37° C. in Dulbecco's modified Eagle's medium (DMEM) supplemented with 10% (v/v) fetal bovine serum (FBS), 2 mM glutamine, 100 U/ml penicillin, and 100 μg/ml streptomycin. Cells were seeded into 10 cm dish and 24 hours later were transfected with either AT1aR (pcDNA3.1) or AT2R (pcDNAI/Amp) using GeneJuice transfection reagent according to the manufacturer's instructions. Cells were harvested 48 hours after transfection. A pellet of transfected HEK293T cells (2×10^6 cells) was resuspended in ice-cold 0.5 ml binding buffer (50 mM Tris-HCl pH 7.4, 100 mM NaCl, 10 mM MgCl2, 1 mM EDTA, 0.2% BSA and 0.025% Bacitracin) containing protease inhibitors (Complete™, Roche). The cells were transferred to a 1.5 ml microcentrifuge tube and subjected to two cycles of freeze-thawing. The lysed cells were sheared by passaging seven times through a 26-gauge needle and the crude membranes were pelleted by ultracentrifugation (60 min, 120,000×g, 4° C.). The crude membranes were then resuspended in a final volume of 0.2 ml ice-cold binding buffer containing protease inhibitors corresponding to a protein concentration 3.3 μg/μl as determined by the amido black protein assay^45.
# (§3) Radioligand binding assays. […] Non-specific binding was determined in presence of 6 μM cold AII. […] Samples were incubated for 2 hours at 4° C. Receptor-bound and free radioligand were separated by filtration through Whatman GF/B filters, pre-soaked with 0.3% polyethylamine. The filters were washed with 5 ml of ice-cold binding buffer and transferred to scintillation tubes. Radioactivity was counted on a Beckman LS6000 liquid scintillation counter and data were analyzed by non-linear regression using Prism software (GraphPad).
# AT2R-Y189A = molecular target: T2, AT2R-Y189A (Homo sapiens, UniProt P50052, Y189A); experiment: Radioligand binding assays, AT2R mutant; conditions: competition vs 2 nM [125I]-AII, 2 hours on ice, Cheng and Prusoff
# T2 construct: expressed in transfected cells; host or cells: HEK293T, transient, crude membranes
# T2 sequence (P50052 1-363 Y189A): T1 sequence (P50052 1-363 F272H) with Y189A, H272F
# Protocol: as §1, §2, §3
# AT2R-Y189N = molecular target: T3, AT2R-Y189N (Homo sapiens, UniProt P50052, Y189N); experiment: Radioligand binding assays, AT2R mutant; conditions: competition vs 2 nM [125I]-AII, 2 hours on ice, Cheng and Prusoff
# T3 construct: expressed in transfected cells; host or cells: HEK293T, transient, crude membranes
# T3 sequence (P50052 1-363 Y189N): T1 sequence (P50052 1-363 F272H) with Y189N, H272F
# Protocol: as §1, §2, §3
# AT2R-F272A = molecular target: T4, AT2R-F272A (Homo sapiens, UniProt P50052, F272A); experiment: Radioligand binding assays, AT2R mutant; conditions: competition vs 2 nM [125I]-AII, 2 hours on ice, Cheng and Prusoff
# T4 construct: expressed in transfected cells; host or cells: HEK293T, transient, crude membranes
# T4 sequence (P50052 1-363 F272A): T1 sequence (P50052 1-363 F272H) with H272A
# Protocol: as §1, §2, §3
# AT1aR [1] = molecular target: T5, AT1aR (Rattus norvegicus, UniProt P25095); experiment: Radioligand binding assays (saturation and competition), HEK293T membranes; conditions: for Ki: competition vs 2 nM [125I]-AII, 2 hours on ice, Cheng and Prusoff, receptor printed AT1R
# T5 construct: expressed in transfected cells; host or cells: HEK293T, transient, crude membranes
# T5 sequence (P25095 1-359): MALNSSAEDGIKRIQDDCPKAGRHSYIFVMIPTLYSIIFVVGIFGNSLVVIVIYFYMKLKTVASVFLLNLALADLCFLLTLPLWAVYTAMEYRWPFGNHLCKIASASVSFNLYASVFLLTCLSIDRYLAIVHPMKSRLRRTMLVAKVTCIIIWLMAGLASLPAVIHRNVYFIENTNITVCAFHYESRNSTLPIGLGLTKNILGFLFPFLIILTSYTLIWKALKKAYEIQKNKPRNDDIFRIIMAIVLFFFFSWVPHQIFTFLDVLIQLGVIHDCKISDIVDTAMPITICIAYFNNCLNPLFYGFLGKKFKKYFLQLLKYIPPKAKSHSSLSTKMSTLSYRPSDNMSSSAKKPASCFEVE
# Protocol: as §2, §3
# AT2R wild type = experiment: as above
# Protocol: as §2, §3
# [2] = cis/trans isomer population in aqueous solution by NMR; type: physicochemical; conditions: cis amide bond at residue 6-Pro7, aqueous solution
# Text: Peptide synthesis and sample preparation. The synthesis of the following peptides: AII (D^1-R^2—V^3—Y^4—I^5—H^6—P^7—F^8); [Y]^6-AII (D^1-R^2—V^3—Y^4—I^5—Y^6—P^7—F^8); [4-OPO3H2—F]^6-AII, (D^1-R^2—V^3—Y^4—I^5-(4-OPO3H2—F)^6—P^7—F^8), [F]^6-AII, (D^1-R^2—V^3—Y^4—I^5—F^6—P^7—F^8) and [4-NO2—F]^6-AII, (D^1-R^2—V^3—Y^4—I^5-(4-NO2—F)^6—P^7—F^8) was achieved using Fmoc/tBu methodology. 2-Chlorotrityl chloride resin and N^α-Fmoc (9-fluorenylmethyloxycarbonyl) amino acids were used for the synthesis. Peptide purity was assessed by analytical HPLC (Nucleosil-120 C18, reversed phase, 250×4.0 mm), mass spectrometry (FABMS, ESIMS) and amino acid analysis. The samples were prepared for NMR spectroscopy by dissolving the peptide in 0.01 M KPi buffer (pH=4), containing 0.02 M KCl. 2,2-dimethyl-2-sila-pentane sulfonate (DSS) was added to a concentration of 1 mM as an internal chemical shift reference. Peptide concentration was commonly 4 mM in 90% ^1H2O/10% ^2H2O. Trace amounts of NaN3 were added as a preservative.
# Inter-proton distances for AII were derived by measuring cross-peak intensities in the NOESY spectra. Intensities were calibrated to give a set of distance constrains using the NMRVIEW software package. NOEs cross peaks were separated into three distance categories according to their intensity. […]
# AT2R = molecular target: T6, AT2R (Homo sapiens, UniProt P50052); conditions: relative to AII; cited from earlier work
# T6 sequence (P50052 1-363): T1 sequence (P50052 1-363 F272H) with H272F
# AT1aR [3] = conditions: relative to AII; cited from earlier work
Compound,Ki (AT2R-F272H),Ki (AT2R-Y189A),Ki (AT2R-Y189N),Ki (AT2R-F272A),Ki (AT1aR [1]),%cis [2],lower affinity for AT2R in comparison to [Y]^6-AII (AT2R wild type; unpublished data),further results
"CC[C@H](C)[C@H](NC(=O)[C@H](Cc1ccc(O)cc1)NC(=O)[C@@H](NC(=O)[C@H](CCCNC(=N)N)NC(=O)[C@@H](N)CC(=O)O)C(C)C)C(=O)N[C@@H](Cc1ccc(OP(=O)(O)O)cc1)C(=O)N1CCC[C@H]1C(=O)N[C@@H](Cc1ccccc1)C(=O)O [[4-OPO3H2—F]^6-AII, D^1-R^2—V^3—Y^4—I^5-(4-OPO3H2—F)^6—P^7—F^8] (HELM PEPTIDE1{D.R.V.Y.I.[O=C([C@H](Cc1ccc(OP(=O)(O)O)cc1)N[*:1])[*:2]].P.F}$$$$V2.0)",21 nM,51 nM,200 nM,250 nM,> 2500 nM,–,–,–
"CC[C@H](C)[C@H](NC(=O)[C@H](Cc1ccc(O)cc1)NC(=O)[C@@H](NC(=O)[C@H](CCCNC(=N)N)NC(=O)[C@@H](N)CC(=O)O)C(C)C)C(=O)N[C@@H](Cc1c[nH]cn1)C(=O)N1CCC[C@H]1C(=O)N[C@@H](Cc1ccccc1)C(=O)O [[^125I]-AII, reference compound]",–,–,–,–,–,–,–,"Kd (AT2R wild type; saturation assay, 2 hours on ice): 2.3 ± 0.3 nM"
DRVYIYPF [[Y]^6-AII],16 nM,12 nM,10 nM,16 nM,> 2500 nM,–,–,–
D^1-R^2—V^3—Y^4—I^5-(4-NO2—F)^6—P^7—F^8 [[4-NO2—F]^6-AII],–,–,–,–,–,~5%,300 times,binding / affinity for AT1aR (in words) (AT1aR [1]): high affinity (nM)
"D^1-R^2—V^3—Y^4—I^5—F^6—P^7—F^8 (DRVYIFPF; Angiotensin-2; UniProt P01019 25-32, looked up, variant H6F) [[F]^6-AII, AII analogue with phenylalanine at position 6]",–,–,–,–,–,~20%,more than 50 times,affinity for AT1aR compared with AT2R (in words) (AT2R wild type; unpublished data): same affinity for both AT1aR and AT2R
"Pro7Gly mutation in AII: literature AII analogue with Pro7 replaced by Gly (ref 16) (DRVYIHGF; Angiotensin-2; UniProt P01019 25-32, looked up, variant P7G)",–,–,–,–,–,–,–,affinity for the AT2R (in words) (AT2R): almost retained its affinity; lower affinity for AT1aR (AT1aR [3]): 150 times
